Results published in patent US10251395B2, “Substituted furano-/thienocycloalkylamino-2-pyrimidine derivatives and use thereof for controlling undesired plant growth” (Bayer CropScience Aktiengesellschaft, priority 2015, dated 2019).

Columns and labels:
Setaria viridis [1] = assay: Pre-emergence herbicidal effect; format: in vivo; settings: scored visually after 3 weeks
In short: (§1)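 Seeds sown in sandy loam in wood-fiber pots and covered with soil; WP or EC formulations applied to the soil surface as aqueous suspension or emulsion at 600 to 800 L/ha water with 0.2% wetting agent. Greenhouse, 3 weeks; damage scored visually versus untreated controls (100% = plants died, 0% = like control).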

Stellaria media [2] = assay: Pre-emergence herbicidal effect; format: in vivo; settings: scored visually after 3 weeks
In short: as §1

Veronica persica = assay: Pre-emergence herbicidal effect; format: in vivo; settings: scored visually after 3 weeks
In short: as §1

Lolium multiflorum [3] = assay: Pre-emergence herbicidal effect; format: in vivo; settings: Dosage 320 g/ha, scored visually after 3 weeks
In short: as §1

Alopecurus myosuroides [4] = assay: Pre-emergence herbicidal effect; format: in vivo; settings: scored visually after 3 weeks
In short: as §1

Echinochloa crus-galli [5] = assay: Pre-emergence herbicidal effect; format: in vivo; settings: scored visually after 3 weeks
In short: as §1

Avena fatua [6] = assay: Pre-emergence herbicidal effect; format: in vivo; settings: Dosage 320 g/ha, scored visually after 3 weeks
In short: as §1

Abutilon theophrasti [7] = assay: Pre-emergence herbicidal effect; format: in vivo; settings: Dosage 320 g/ha, scored visually after 3 weeks
In short: as §1

Viola tricolor [8] = assay: Pre-emergence herbicidal effect; format: in vivo; settings: scored visually after 3 weeks
In short: as §1

Amaranthus retroflexus [9] = assay: Pre-emergence herbicidal effect; format: in vivo; settings: scored visually after 3 weeks
In short: as §1

Matricaria inodora [10] = assay: Pre-emergence herbicidal effect; format: in vivo; settings: scored visually after 3 weeks
In short: as §1

Polygonum convolvulus [11] = assay: Pre-emergence herbicidal effect; format: in vivo; settings: scored visually after 3 weeks
In short: as §1

logP (HCOOH) = format: physicochemical; settings: HCOOH
Excerpt: Table 2 (physicochemical characterization of selected synthesis examples)

Setaria viridis [12] = assay: Post-emergence herbicidal effect; format: in vivo; settings: assessed visually after about 3 weeks vs untreated controls
In short: (§2)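 Visual % damage vs untreated plants, ~3 wk after spraying (100% = dead, 0% = as control). Post-emergence foliar spray at one-leaf stage; WP/EC in water, 600–800 L/ha + 0.2% wetting agent; sandy loam, greenhouse.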

Stellaria media [13] = assay: Post-emergence herbicidal effect; format: in vivo; settings: assessed visually after about 3 weeks vs untreated controls
In short: as §2

Lolium multiflorum [14] = assay: Post-emergence herbicidal effect; format: in vivo; settings: 320 g/ha, assessed visually after about 3 weeks vs untreated controls
In short: as §2

Alopecurus myosuroides [15] = assay: Post-emergence herbicidal effect; format: in vivo; settings: 320 g/ha, assessed visually after about 3 weeks vs untreated controls
In short: as §2

Echinochloa crus-galli [16] = assay: Post-emergence herbicidal effect; format: in vivo; settings: assessed visually after about 3 weeks vs untreated controls
In short: as §2

Avena fatua [17] = assay: Post-emergence herbicidal effect; format: in vivo; settings: 320 g/ha, assessed visually after about 3 weeks vs untreated controls
In short: as §2

Abutilon theophrasti [18] = assay: Post-emergence herbicidal effect; format: in vivo; settings: assessed visually after about 3 weeks vs untreated controls
In short: as §2

Viola tricolor [19] = assay: Post-emergence herbicidal effect; format: in vivo; settings: assessed visually after about 3 weeks vs untreated controls
In short: as §2

Amaranthus retroflexus [20] = assay: Post-emergence herbicidal effect; format: in vivo; settings: assessed visually after about 3 weeks vs untreated controls
In short: as §2

Matricaria inodora [21] = assay: Post-emergence herbicidal effect; format: in vivo; settings: assessed visually after about 3 weeks vs untreated controls
In short: as §2

Ipomoea purpurea = assay: Post-emergence herbicidal effect; format: in vivo; settings: 320 g/ha, assessed visually after about 3 weeks vs untreated controls
In short: as §2

Polygonum convolvulus [22] = assay: Post-emergence herbicidal effect; format: in vivo; settings: assessed visually after about 3 weeks vs untreated controls
In short: as §2

SMILES: Nc1nc(NC2CCc3sc(Cl)cc32)ncc1C(F)(F)F (racemic) [compound 256]
- SETVI pre-emergence efficacy (herbicidal activity) (Setaria viridis [1]; Dosage 80 g/ha): 100%
- SETVI pre-emergence efficacy (herbicidal activity) (Setaria viridis [1]; Dosage 320 g/ha): 100%
- STEME pre-emergence efficacy (herbicidal activity) (Stellaria media [2]; Dosage 80 g/ha): 100%
- STEME pre-emergence efficacy (herbicidal activity) (Stellaria media [2]; Dosage 320 g/ha): 100%
- VERPE pre-emergence efficacy (herbicidal activity) (Veronica persica; Dosage 80 g/ha): 100%
- VERPE pre-emergence efficacy (herbicidal activity) (Veronica persica; Dosage 320 g/ha): 100%
- LOLMU pre-emergence efficacy (herbicidal activity) (Lolium multiflorum [3]): 100%
- ALOMY pre-emergence efficacy (herbicidal activity) (Alopecurus myosuroides [4]; Dosage 80 g/ha): 60%
- ALOMY pre-emergence efficacy (herbicidal activity) (Alopecurus myosuroides [4]; Dosage 320 g/ha): 100%
- ECHCG pre-emergence efficacy (herbicidal activity) (Echinochloa crus-galli [5]; Dosage 80 g/ha): 100%
- ECHCG pre-emergence efficacy (herbicidal activity) (Echinochloa crus-galli [5]; Dosage 320 g/ha): 100%
- AVEFA pre-emergence efficacy (herbicidal activity) (Avena fatua [6]): 100%
- ABUTH pre-emergence efficacy (herbicidal activity) (Abutilon theophrasti [7]): 100%
- VIOTR pre-emergence efficacy (herbicidal activity) (Viola tricolor [8]; Dosage 80 g/ha): 100%
- VIOTR pre-emergence efficacy (herbicidal activity) (Viola tricolor [8]; Dosage 320 g/ha): 100%
- AMARE pre-emergence efficacy (herbicidal activity) (Amaranthus retroflexus [9]; Dosage 80 g/ha): 100%
- AMARE pre-emergence efficacy (herbicidal activity) (Amaranthus retroflexus [9]; Dosage 320 g/ha): 100%
- MATIN pre-emergence efficacy (herbicidal activity) (Matricaria inodora [10]; Dosage 80 g/ha): 100%
- MATIN pre-emergence efficacy (herbicidal activity) (Matricaria inodora [10]; Dosage 320 g/ha): 100%
- POLCO pre-emergence efficacy (herbicidal activity) (Polygonum convolvulus [11]; Dosage 80 g/ha): 100%
- POLCO pre-emergence efficacy (herbicidal activity) (Polygonum convolvulus [11]; Dosage 320 g/ha): 100%
- logP (HCOOH) (logP (HCOOH)): solid; logP (HCOOH): 2.30; 1H NMR (CDCl3, 400 MHZ, δ in ppm): 2.15 (m, 1H, 1H
- post-emergence efficacy SETVI (Setaria viridis [12]; 80 g/ha): 90%
- post-emergence efficacy SETVI (Setaria viridis [12]; 320 g/ha): 90%
- post-emergence efficacy STEME (Stellaria media [13]; 80 g/ha): 100%
- post-emergence efficacy STEME (Stellaria media [13]; 320 g/ha): 100%
- post-emergence efficacy LOLMU (Lolium multiflorum [14]): 70%
- post-emergence efficacy ALOMY (Alopecurus myosuroides [15]): 90%
- post-emergence efficacy ECHCG (Echinochloa crus-galli [16]; 80 g/ha): 100%
- post-emergence efficacy ECHCG (Echinochloa crus-galli [16]; 320 g/ha): 100%
- post-emergence efficacy AVEFA (Avena fatua [17]): 70%
- post-emergence efficacy ABUTH (Abutilon theophrasti [18]; 80 g/ha): 90%
- post-emergence efficacy ABUTH (Abutilon theophrasti [18]; 320 g/ha): 90%
- post-emergence efficacy VIOTR (Viola tricolor [19]; 80 g/ha): 90%
- post-emergence efficacy VIOTR (Viola tricolor [19]; 320 g/ha): 90%
- post-emergence efficacy AMARE (Amaranthus retroflexus [20]; 80 g/ha): 100%
- post-emergence efficacy AMARE (Amaranthus retroflexus [20]; 320 g/ha): 100%
- post-emergence efficacy MATIN (Matricaria inodora [21]; 80 g/ha): 100%
- post-emergence efficacy MATIN (Matricaria inodora [21]; 320 g/ha): 100%
- post-emergence efficacy PHBPU (Ipomoea purpurea): 100%
- post-emergence efficacy POLCO (Polygonum convolvulus [22]; 80 g/ha): 90%
- post-emergence efficacy POLCO (Polygonum convolvulus [22]; 320 g/ha): 90%
